# Test results from article PMC3331894 (Journal of Immunology (Baltimore, Md. : 1950), 2012).
# Legend:
# CD4 T cells [1] = settings: immunodominant or cryptic epitope presented by I-A^d; cited from earlier work
# [2] = target: purified soluble DR1 molecules (Homo sapiens, UniProt P01903+P01911, A100R/D57E/F55L/F60I/F76Y/I96L/L162R/M171V/P40L/Q125E/R42F/V115G/Y59C); type: binding
# CD4 T cells [3] = type: cell-based, HLA-DR1 transgenic mice; settings: average of at least 3 independent assays
Sequence,Immune Response (CD4 T cells [1]),dissociation half-time (t1/2) of DR1:peptide complexes [2] [days],"t1/2 (h) pH 5.3, dissociation of DR1:peptide complexes [2] [h]",Cytokine Spots (number of CD4 T cell recruited per million) (CD4 T cells [3])
AMKRHGLDNYRGYSL [HEL[11–25]],Cryptic,–,–,–
ELLVLLENERTLDFHD [HA-440],–,14.6,350,146 spots per million CD4 T cells
HNTNGVTAACSHE [HA[126–138]],Cryptic,–,–,–
HNVNGVTAACSHE [HA[126–138]T128V],Dominant,–,–,–
KRNLLWLTGKNGL [HA-162],–,3.54,85,163 spots per million CD4 T cells
MEERKIKVYLPRMKME [OVA[273–288]],Dominant,–,–,–
SGYAADQKSTQNAINGI [HA-375],–,25,600,–
